Results reported in the NIST ThermoML archive (doi:10.1016/j.jct.2013.12.028).
± gives the expanded uncertainty stated by the source.

Key:
[1] = 101.33 kPa, Liquid, Vibrating tube method
[2] = refractive index (Na D-line) (dimensionless); details: 298.15 K; 101.33 kPa; Liquid; Pulfrich refractometry

C1CCOC1 [tetrahydrofuran]
[1]
Details | mass density [kg/m3]
278.15 K | 903.68 ± 0.12
283.15 K | 898.309 ± 0.12
288.15 K | 892.903 ± 0.12
293.15 K | 887.471 ± 0.12
298.15 K | 882.005 ± 0.13
303.15 K | 876.513 ± 0.13
308.15 K | 870.981 ± 0.13
313.15 K | 865.414 ± 0.13
318.15 K | 859.81 ± 0.13

Details | refractive index
[2] | 1.4048 ± 0.00012
